Source: patent US9255295B2, “Method for evaluating the sensitizing potential of a test compound” (IMMUNOSEARCH, priority 2010, dated 2016)
Several values for one entry are separate records, joined by “and”; a condition that tells them apart may be missing. Equal entries are not always repeated. Where two headings read alike, the source gives them in different places.

Tests used:
[1] = tested on: genes specific for sensitization (BRAK, CTSS, DAPK2, FABP4, HSP27, IL18, HSP90, IL1R2, TPSAB1, CXCR1, DEFB1, DHFR, EHF, IVL, KRT4, MELANA, NGAL, PDZK1IP1, PI3 …); assay: Expression of the other (non-ARE) sensitization-specific genes in EPISKIN reconstructed skin (quantitative RT-PCR); format: cell-based, human
[2] = tested on: ARE gene family (AKR1B10, AKR1C1, AKR1C2, CYP1B1, FTH1P, FTL, G6PD, GCLM, NQO2, SLC7A11, TXNRD1, UGT1A1, UGT1A9, YWHAZ, CD36, CYP1A1, GCLC, HMOX1, NQO1, PSME2 …)

## Nc1ccccc1O [2-aminophenol]
[1]
  BRAK grade (NUMBER OF GENES): 0 (key: If the expression is greater than 1.3 compared to the control, a grade of 11s given; if this expression is lower, the grade is 0)
  CTSS expression compared to control: 1.3 and 1.2 and 1.4
  DAPK2 expression compared to control: 1.0 and 0.9
  DAPK2 grade (NUMBER OF GENES): 0 (key: If the expression is greater than 1.3 compared to the control, a grade of 11s given; if this expression is lower, the grade is 0)
  DEFB1 expression compared to control: 1.9 and 1.8 and 1.4 and 1.1
  DHFR expression compared to control: 0.9 and 1.2
  DHFR grade (NUMBER OF GENES): 0 (key: If the expression is greater than 1.3 compared to the control, a grade of 11s given; if this expression is lower, the grade is 0)
  EHF expression compared to control: 1.7 and 1.5 and 1.4 and 1.2
  FABP4 expression compared to control: 1.1 and 0.7 and 0.9
  FABP4 grade (NUMBER OF GENES): 0 (key: If the expression is greater than 1.3 compared to the control, a grade of 11s given; if this expression is lower, the grade is 0)
  HSP27 expression compared to control: 1.0 and 1.1 and 0.8
  HSP27 grade (NUMBER OF GENES): 0 (key: If the expression is greater than 1.3 compared to the control, a grade of 11s given; if this expression is lower, the grade is 0)
  HSP90 expression compared to control: 1.5 and 1.2 and 1.0
  IL18 expression compared to control: 0.9 and 0.8 and 1.1
  IL18 grade (NUMBER OF GENES): 0 (key: If the expression is greater than 1.3 compared to the control, a grade of 11s given; if this expression is lower, the grade is 0)
  IVL expression compared to control: 1.8 and 1.3 and 0.9
  KRT4 expression compared to control: 1.7 and 1.1
  MELANA grade (NUMBER OF GENES): 0 (key: If the expression is greater than 1.3 compared to the control, a grade of 11s given; if this expression is lower, the grade is 0)
  NGAL expression compared to control: 1.8 and 1.9 and 1.5 and 1.1
  P13 expression compared to control: 1.5 and 1.4 and 1.2 and 1.3
  PDZK1iP1 expression compared to control: 1.0
  PDZK1iP1 grade (NUMBER OF GENES): 0 (key: If the expression is greater than 1.3 compared to the control, a grade of 11s given; if this expression is lower, the grade is 0)
  SERPINB3 expression compared to control: 1.4 and 1.2 and 1.3
[2]; 0.1%
  AHR expression compared to control: 1.0
  AHR grade (NUMBER OF GENES): 0 (if this expression is lower, the grade is 0)
  AKR1B10 expression compared to control: 0.8
  AKR1B10 grade (NUMBER OF GENES): 0 (if this expression is lower, the grade is 0)
  AKR1C1 expression compared to control: 1.2
  AKR1C1 grade (NUMBER OF GENES): 0 (if this expression is lower, the grade is 0)
  AKR1C2 expression compared to control: 1.1
  AKR1C2 grade (NUMBER OF GENES): 0 (if this expression is lower, the grade is 0)
  ARE >1.3 (NUMBER OF GENES): 5
  CD36 expression compared to control: 0.9
  CD36 grade (NUMBER OF GENES): 0 (if this expression is lower, the grade is 0)
  CYP1A1 expression compared to control: 7.1
  CYP1A1 grade (NUMBER OF GENES): 1 (If the expression is greater than 1.3 compared to the control, a grade of 11s given)
  CYP1B1 expression compared to control: 5.3
  CYP1B1 grade (NUMBER OF GENES): 1 (If the expression is greater than 1.3 compared to the control, a grade of 11s given)
  FTH1P expression compared to control: 0.9
  FTH1P grade (NUMBER OF GENES): 0 (if this expression is lower, the grade is 0)
  FTL expression compared to control: 1.0
  FTL grade (NUMBER OF GENES): 0 (if this expression is lower, the grade is 0)
  GCLC expression compared to control: 1.1
  GCLC grade (NUMBER OF GENES): 0 (if this expression is lower, the grade is 0)
  GCLM expression compared to control: 2.1
  GCLM grade (NUMBER OF GENES): 1 (If the expression is greater than 1.3 compared to the control, a grade of 11s given)
  HMOX1 expression compared to control: 1.1
  HMOX1 grade (NUMBER OF GENES): 0 (if this expression is lower, the grade is 0)
  NQO1 expression compared to control: 0.9
  NQO1 grade (NUMBER OF GENES): 0 (if this expression is lower, the grade is 0)
  NQO2 expression compared to control: 1.0
  NQO2 grade (NUMBER OF GENES): 0 (if this expression is lower, the grade is 0)
  S100A8 expression compared to control: 1.4
  S100A8 grade (NUMBER OF GENES): 1 (If the expression is greater than 1.3 compared to the control, a grade of 11s given)
  SLC7A11 expression compared to control: 2.1
  SLC7A11 grade (NUMBER OF GENES): 1 (If the expression is greater than 1.3 compared to the control, a grade of 11s given)
  TOTAL ARE (NUMBER OF GENES): 5
  TXNRD1 expression compared to control: 3.0
  TXNRD1 grade (NUMBER OF GENES): 1 (If the expression is greater than 1.3 compared to the control, a grade of 11s given)
  UGT1A1 expression compared to control: 0.9
  UGT1A1 grade (NUMBER OF GENES): 0 (if this expression is lower, the grade is 0)
  UGT1A9 expression compared to control: 1.1
  UGT1A9 grade (NUMBER OF GENES): 0 (if this expression is lower, the grade is 0)
[2]; 1%
  AHR expression compared to control: 0.6
  AHR grade (NUMBER OF GENES): 0 (if this expression is lower, the grade is 0)
  AKR1B10 expression compared to control: 0.9
  AKR1B10 grade (NUMBER OF GENES): 0 (if this expression is lower, the grade is 0)
  AKR1C1 expression compared to control: 4.3
  AKR1C1 grade (NUMBER OF GENES): 1 (If the expression is greater than 1.3 compared to the control, a grade of 11s given)
  AKR1C2 expression compared to control: 1.2
  AKR1C2 grade (NUMBER OF GENES): 0 (if this expression is lower, the grade is 0)
  ARE >1.3 (NUMBER OF GENES): 10
  CD36 expression compared to control: 0.6
  CD36 grade (NUMBER OF GENES): 0 (if this expression is lower, the grade is 0)
  CYP1A1 expression compared to control: 14.6
  CYP1A1 grade (NUMBER OF GENES): 1 (If the expression is greater than 1.3 compared to the control, a grade of 11s given)
  CYP1B1 expression compared to control: 15.6
  CYP1B1 grade (NUMBER OF GENES): 1 (If the expression is greater than 1.3 compared to the control, a grade of 11s given)
  FTH1P expression compared to control: 1.2
  FTH1P grade (NUMBER OF GENES): 0 (if this expression is lower, the grade is 0)
  FTL expression compared to control: 2.1
  FTL grade (NUMBER OF GENES): 1 (If the expression is greater than 1.3 compared to the control, a grade of 11s given)
  GCLC expression compared to control: 2.2
  GCLC grade (NUMBER OF GENES): 1 (If the expression is greater than 1.3 compared to the control, a grade of 11s given)
  GCLM expression compared to control: 3.5
  GCLM grade (NUMBER OF GENES): 1 (If the expression is greater than 1.3 compared to the control, a grade of 11s given)
  HMOX1 expression compared to control: 1.4
  HMOX1 grade (NUMBER OF GENES): 1 (If the expression is greater than 1.3 compared to the control, a grade of 11s given)
  NQO1 expression compared to control: 1.1
  NQO1 grade (NUMBER OF GENES): 0 (if this expression is lower, the grade is 0)
  NQO2 expression compared to control: 1.1
  NQO2 grade (NUMBER OF GENES): 0 (if this expression is lower, the grade is 0)
